Measurements from publication PMC8776995 (Frontiers in Chemistry, 2022).
Several values for one entry are separate records, joined by “and”; a condition that tells them apart may be missing. Identical values can stand only once.

Key:
[1] = tested on: CCND1, CCNA2, CCNB1, CDK2, CDK6 RNA in PC-9 cells; assay: qPCR assay for cell cycle-related gene analysis; assay type: cell-based, human; settings: for 2^ΔΔCт CDK6: Repeat 1-3, relative to NC = 1; for RQ / RQ, CCNA / RQ, CCNB / RQ, CCND1 / RQ, CDK6 / RQ (CDK2): endogenous control b-Actin, reference sample NC; for CDK6 relative mRNA expression (fold of NC): qPCR, SYBR Green, normalised to beta-Actin, relative to NC = 1
Description: To better understand the mechanisms underlying cell cycle arrest induced by e4 and e12 in NSCLC cells, we assessed the expression levels of a few genes involved in cell cycle regulation, including cyclin D1 (CCND1), cyclin A2 (CCNA2), cyclin B1 (CCNB1), cyclin-dependent kinase 2 (CDK2), and cyclin-dependent kinase 6 (CDK6) in PC-9 by qPCR. […] CCNA2 is known to bind and activate CDK2 and thus promotes the transition through G1/S and G2/M. CCNB1 and CCND1 are essential to mitosis and G1/S transition respectively. While G2/M arrest weas not detected, the changes in these gene expression profiles interpret the G1/S arrests in PC-9 cells treated with e4 and e12. PC-9 cells exposed to the compounds for various periods should be examined further.
Total RNA of cells was extracted and cDNA was synthesized. The primers for the target products were designed as in Table 3.

wild-type EGFR = wild-type EGFR (Homo sapiens, UniProt P00533); assay: EGFR kinase assay (ELISA); settings: for A450: raw ELISA absorbance
Description: The kinase enzyme of EGFR was purchased from Carna Bioscience (Kobe, Japan). A total of 10 ng/ml anti phosphotyrosine (PY713) antibody (abcam, Cambridge Science Park, United Kingdom) was precoated in 96-well ELISA plates. […] Then, a total of 3 μmol/L ATP was added and the reaction was continued for 2 h. […] After incubation, the wells were washed with PBS and then incubated with horseradish peroxidase (HRP)-conjugated streptavidin. The wells were visualized using 3,3′,5,5′-tetramethylbenzidine (TMB), and chromogenic reaction was ended with 2 mol/L H2SO4, the absorbance was read with a multimode plate reader (PerkinElmer, United States) at 450 nm.

[2] = PC-9, 16 h, compared with DMSO control

wild-type EGFR, sequence (P00533 25-1210): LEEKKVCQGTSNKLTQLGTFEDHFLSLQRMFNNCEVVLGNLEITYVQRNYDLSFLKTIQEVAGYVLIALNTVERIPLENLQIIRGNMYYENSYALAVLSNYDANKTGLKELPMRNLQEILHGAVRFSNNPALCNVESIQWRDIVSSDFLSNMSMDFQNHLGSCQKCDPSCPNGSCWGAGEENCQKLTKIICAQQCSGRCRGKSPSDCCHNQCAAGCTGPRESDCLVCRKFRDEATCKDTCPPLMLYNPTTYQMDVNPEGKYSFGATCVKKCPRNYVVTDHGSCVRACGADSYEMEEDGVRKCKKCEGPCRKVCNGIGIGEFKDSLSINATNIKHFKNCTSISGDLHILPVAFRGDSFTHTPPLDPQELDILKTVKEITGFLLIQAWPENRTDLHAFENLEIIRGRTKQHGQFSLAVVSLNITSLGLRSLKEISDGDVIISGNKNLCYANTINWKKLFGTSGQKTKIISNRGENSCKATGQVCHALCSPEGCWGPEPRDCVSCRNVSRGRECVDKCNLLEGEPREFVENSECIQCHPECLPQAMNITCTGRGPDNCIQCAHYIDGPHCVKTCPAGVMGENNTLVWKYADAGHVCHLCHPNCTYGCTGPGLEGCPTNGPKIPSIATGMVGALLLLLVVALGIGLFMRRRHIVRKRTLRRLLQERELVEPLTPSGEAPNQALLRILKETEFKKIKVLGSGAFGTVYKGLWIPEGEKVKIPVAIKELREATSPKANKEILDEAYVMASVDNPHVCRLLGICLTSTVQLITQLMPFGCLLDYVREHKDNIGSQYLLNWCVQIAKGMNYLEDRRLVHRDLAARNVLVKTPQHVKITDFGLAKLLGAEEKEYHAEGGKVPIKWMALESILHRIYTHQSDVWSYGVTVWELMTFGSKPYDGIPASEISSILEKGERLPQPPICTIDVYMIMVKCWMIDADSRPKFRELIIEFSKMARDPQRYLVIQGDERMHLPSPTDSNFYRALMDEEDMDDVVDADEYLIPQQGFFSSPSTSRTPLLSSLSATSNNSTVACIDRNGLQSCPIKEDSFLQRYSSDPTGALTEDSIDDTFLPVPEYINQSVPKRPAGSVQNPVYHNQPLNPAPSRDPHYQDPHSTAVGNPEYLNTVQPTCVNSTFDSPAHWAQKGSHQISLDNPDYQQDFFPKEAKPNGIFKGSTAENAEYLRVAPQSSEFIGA

**Q.** What does the source list for COCCOc1cc2ncnc(Nc3cccc(-c4cn(-c5ccc(C)cc5)nn4)c3)c2cc1OCCOC [e12, [6,7-Bis-(2-methoxy-ethoxy)-quinazolin-4-yl]-[3-(1-p-tolyl-1H-[1,2,3]triazol-4-yl)-phenyl]-amine]?
**A.** 2^ΔΔCт CDK6 ([1]; CDK6, 8uM): 0.8101 and 1.1509 and 0.9153; 2^ΔΔCт ([1]; CDK6, 8uM, normalized to WT (NC), run 20201020-2): 0.9153; 2^ΔΔCт CDK6 ([1]; CDK6, 12uM): 0.676 and 1.27 and 0.9852; RQ ([1]; CDK6 mRNA, 4uM): 0.9896; RQ ([1]; CDK6 mRNA, 8uM): 0.9153; RQ ([1]; CDK6 mRNA, 12uM): 0.9852; RNA level of CCNA2 [1, 2]: significantly decreased; RNA level of CCNB1 [1, 2]: significantly decreased; RQ, CCNA ([1]; qPCR SYBR Green, CCNA mRNA, 4uM): 0.6447; RQ, CCNA ([1]; qPCR SYBR Green, CCNA mRNA, 8uM): 0.5272; RQ, CCNA ([1]; qPCR SYBR Green, CCNA mRNA, 12uM): 0.5472; RQ, CCNB ([1]; qPCR SYBR Green, CCNB mRNA, 4uM): 1.09; RQ, CCNB ([1]; qPCR SYBR Green, CCNB mRNA, 8uM): 1.029; RQ, CCNB ([1]; qPCR SYBR Green, CCNB mRNA, 12uM): 0.964; RQ, CCND1 ([1]; qPCR SYBR Green, CCND1 mRNA, 4uM): 0.963; RQ, CCND1 ([1]; qPCR SYBR Green, CCND1 mRNA, 8uM): 0.9528; RQ, CCND1 ([1]; qPCR SYBR Green, CCND1 mRNA, 12uM): 0.9545; RQ, CDK6 ([1]; qPCR SYBR Green, CDK6 mRNA, 4uM): 0.8604; RQ, CDK6 ([1]; qPCR SYBR Green, CDK6 mRNA, 8uM): 1.1509; RQ, CDK6 ([1]; qPCR SYBR Green, CDK6 mRNA, 12uM): 1.27; CDK6 relative mRNA expression (fold of NC) ([1]; 4uM): 0.9896; CDK6 relative mRNA expression (fold of NC) ([1]; 8uM): 0.9153; CDK6 relative mRNA expression (fold of NC) ([1]; 12uM): 0.9852; RQ, CCNA ([1]; target CCNA, 4uM): 0.5435; RQ, CCNA ([1]; target CCNA, 8uM): 0.582; RQ, CCNA ([1]; target CCNA, 12uM): 0.5914; RQ, CCNB ([1]; target CCNB, 4uM): 0.9828; RQ, CCNB ([1]; target CCNB, 8uM): 0.8452; RQ, CCNB ([1]; target CCNB, 12uM): 0.7825; RQ, CCND1 ([1]; target CCND1, 4uM): 0.7886; RQ, CCND1 ([1]; target CCND1, 8uM): 0.7649; RQ, CCND1 ([1]; target CCND1, 12uM): 0.6173; RQ (CDK2) ([1]; target CDK2, 4uM): 0.9262; RQ (CDK2) ([1]; target CDK2, 8uM): 0.848; RQ (CDK2) ([1]; target CDK2, 12uM): 0.7751; RQ, CDK6 ([1]; target CDK6, 4uM): 0.5928; RQ, CDK6 ([1]; target CDK6, 8uM): 0.8101; RQ, CDK6 ([1]; target CDK6, 12uM): 0.676; IC50 (wild-type EGFR; IC50 (μM) EGFR, ELISA, 3 μmol/L ATP): 1.76 µM; inhibition at 100 fM (wild-type EGFR; concentration 0.0001 nM (reference for normalisation), one value per replicate column): 0%; inhibition at 30 pM (wild-type EGFR; concentration 0.03 nM, one value per replicate column): 8.63%; Inhibition (wild-type EGFR; concentration 0.03 nM, one value per replicate column, 3e-05 µM): 6.151; inhibition at 0.0003 µM (wild-type EGFR; concentration 0.3 nM, one value per replicate column): 9.04%; Inhibition (wild-type EGFR; concentration 0.3 nM, one value per replicate column, 0.0003 µM): 14.0873; inhibition at 0.003 µM (wild-type EGFR; concentration 3 nM, one value per replicate column): 9.24%; Inhibition (wild-type EGFR; concentration 3 nM, one value per replicate column, 0.003 µM): 16.0714; inhibition at 0.03 µM (wild-type EGFR; concentration 30 nM, one value per replicate column): 16.1%; Inhibition (wild-type EGFR; concentration 30 nM, one value per replicate column, 0.03 µM): 18.4524; inhibition at 0.3 µM (wild-type EGFR; concentration 300 nM, one value per replicate column): 20.3%; Inhibition (wild-type EGFR; concentration 300 nM, one value per replicate column, 0.3 µM): 32.1429; inhibition at 3 µM (wild-type EGFR; concentration 3000 nM, one value per replicate column): 50.8%; Inhibition (wild-type EGFR; concentration 3000 nM, one value per replicate column, 3 µM): 50.5952; inhibition at 30 µM (wild-type EGFR; concentration 30000 nM, one value per replicate column): 85.5%; Inhibition (wild-type EGFR; concentration 30000 nM, one value per replicate column, 30 µM): 85.9127; A450 (wild-type EGFR; concentration 0.0001 nM): 0.655 and 0.663; A450 (wild-type EGFR; concentration 0.03 nM): 0.612 and 0.632; A450 (wild-type EGFR; concentration 0.3 nM): 0.61 and 0.592; A450 (wild-type EGFR; concentration 3 nM): 0.609 and 0.582; A450 (wild-type EGFR; concentration 30 nM): 0.575 and 0.57; A450 (wild-type EGFR; concentration 300 nM): 0.554 and 0.501; A450 (wild-type EGFR; concentration 3000 nM): 0.402 and 0.408; A450 (wild-type EGFR; concentration 30000 nM): 0.229 and 0.23
